From publication PMC9005681, “Use of AD Informer Set compounds to explore validity of novel targets in Alzheimer's disease pathology” (Alzheimer's & Dementia : Translational Research & Clinical …, 2022)
Values joined by “and” are separate entries in the source; they are usually repeats but may differ in a detail not shown here. Equal entries are not always repeated.

Key:
Assay in all cases: PDSP GPCR panel primary binding assays at 10 μM
[1] = molecular target: T1, cloned human or rodent CNS receptors, channels, and transporters (PDSP panel) (Homo sapiens, UniProt P35368); settings: primary assay
T1 construct: expressed in transfected cells
T1 sequence (P35368 1-520): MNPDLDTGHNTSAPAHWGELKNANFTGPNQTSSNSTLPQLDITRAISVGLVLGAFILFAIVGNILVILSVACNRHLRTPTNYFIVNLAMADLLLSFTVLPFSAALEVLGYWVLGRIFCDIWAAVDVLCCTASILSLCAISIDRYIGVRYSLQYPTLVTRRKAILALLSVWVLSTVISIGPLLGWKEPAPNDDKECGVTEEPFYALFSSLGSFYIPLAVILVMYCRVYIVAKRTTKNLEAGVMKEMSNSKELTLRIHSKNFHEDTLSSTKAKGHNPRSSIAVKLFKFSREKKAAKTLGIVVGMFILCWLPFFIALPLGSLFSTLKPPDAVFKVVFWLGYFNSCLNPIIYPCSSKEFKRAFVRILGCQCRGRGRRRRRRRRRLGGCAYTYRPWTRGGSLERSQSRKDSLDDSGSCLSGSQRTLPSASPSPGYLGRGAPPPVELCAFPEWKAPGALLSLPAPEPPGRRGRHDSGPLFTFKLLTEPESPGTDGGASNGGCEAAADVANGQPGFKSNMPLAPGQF
Outline: (§1)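 Each compound is first screened once at 10 μM, in quadruplicate, for radioligand displacement. Where mean displacement passes 50%, an 11-point dose-response in triplicate follows at that target, except at H3, PBR and GABAA.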

[2] = molecular target: T2, cloned human or rodent CNS receptors, channels, and transporters (PDSP panel) (Homo sapiens, UniProt P21918); settings: primary assay
T2 construct: expressed in transfected cells
Outline: as §1

[3] = molecular target: T3, cloned human or rodent CNS receptors, channels, and transporters (PDSP panel) (Homo sapiens, UniProt P28221); settings: primary assay
T3 construct: expressed in transfected cells
Outline: as §1

[4] = molecular target: T4, cloned human or rodent CNS receptors, channels, and transporters (PDSP panel) (Homo sapiens, UniProt P08172); settings: M2, primary assay; for Mean %: mean inhibition; for Inhibition 1: replicate 1; for Inhibition 2: replicate 2; for Inhibition 3: replicate 3; for Inhibition 4: replicate 4
T4 construct: expressed in transfected cells
T4 sequence (P08172 1-466): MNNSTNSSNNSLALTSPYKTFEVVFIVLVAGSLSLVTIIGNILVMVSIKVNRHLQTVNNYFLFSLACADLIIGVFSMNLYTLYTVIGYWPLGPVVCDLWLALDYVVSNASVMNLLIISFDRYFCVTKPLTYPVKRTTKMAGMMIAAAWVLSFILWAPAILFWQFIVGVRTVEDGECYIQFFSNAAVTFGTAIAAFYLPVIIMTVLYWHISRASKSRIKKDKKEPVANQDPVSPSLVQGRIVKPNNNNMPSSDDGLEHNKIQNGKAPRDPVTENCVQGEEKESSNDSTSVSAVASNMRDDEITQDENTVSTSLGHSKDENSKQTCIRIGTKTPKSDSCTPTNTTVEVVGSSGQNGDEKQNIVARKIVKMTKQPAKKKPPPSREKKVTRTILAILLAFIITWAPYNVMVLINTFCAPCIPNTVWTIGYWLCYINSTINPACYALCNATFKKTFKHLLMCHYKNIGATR
Outline: as §1

[5] = test system: cloned human or rodent CNS receptors, channels, and transporters (PDSP panel); settings: primary assay
Outline: as §1

[6] = Receptor BZP Rat Brain Site, 10 μM

T3 sequence (P28221 whole entry): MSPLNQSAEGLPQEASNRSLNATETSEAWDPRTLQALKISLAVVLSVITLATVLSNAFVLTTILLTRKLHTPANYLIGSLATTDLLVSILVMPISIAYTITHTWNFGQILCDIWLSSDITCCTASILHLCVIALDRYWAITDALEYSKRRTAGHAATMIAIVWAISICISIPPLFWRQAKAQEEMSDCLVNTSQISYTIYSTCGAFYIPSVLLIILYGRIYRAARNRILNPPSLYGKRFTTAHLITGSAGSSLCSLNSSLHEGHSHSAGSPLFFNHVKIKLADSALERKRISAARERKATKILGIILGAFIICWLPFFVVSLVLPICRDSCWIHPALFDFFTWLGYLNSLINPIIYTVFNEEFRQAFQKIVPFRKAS
T2 sequence (P21918 whole entry): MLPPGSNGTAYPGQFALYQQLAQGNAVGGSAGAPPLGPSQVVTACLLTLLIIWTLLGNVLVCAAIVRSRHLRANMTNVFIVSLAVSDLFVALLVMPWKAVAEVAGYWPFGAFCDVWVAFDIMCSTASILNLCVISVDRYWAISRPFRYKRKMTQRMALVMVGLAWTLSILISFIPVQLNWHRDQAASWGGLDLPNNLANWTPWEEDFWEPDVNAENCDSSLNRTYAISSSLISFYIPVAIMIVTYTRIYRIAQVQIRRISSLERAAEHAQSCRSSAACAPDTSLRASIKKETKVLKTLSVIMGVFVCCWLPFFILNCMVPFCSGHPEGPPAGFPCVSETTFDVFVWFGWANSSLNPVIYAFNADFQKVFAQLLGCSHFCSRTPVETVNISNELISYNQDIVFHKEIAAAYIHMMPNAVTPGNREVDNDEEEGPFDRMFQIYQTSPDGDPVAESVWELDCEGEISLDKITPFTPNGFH

O=c1oc2ccccc2cc1-c1cn2cc(Cc3ccc(F)cc3)sc2n1 [UNC10302680A, iMDK]
Inhibition 1 ([1]; Receptor Alpha1B, 10 μM): 2.49% | Inhibition 2 ([1]; Receptor Alpha1B, 10 μM): 0.66% | Inhibition 3 ([1]; Receptor Alpha1B, 10 μM): -2.09% | Inhibition 4 ([1]; Receptor Alpha1B, 10 μM): -5.18% | Mean % ([1]; Receptor Alpha1B, 10 μM, mean of Inhibition 1-4): -1.03% | Inhibition 1 ([2]; Receptor D5, 10 μM): 22.41% | Inhibition 2 ([2]; Receptor D5, 10 μM): 16.72% | Inhibition 3 ([2]; Receptor D5, 10 μM): -1.22% | Inhibition 4 ([2]; Receptor D5, 10 μM): 7.82% | Mean % ([2]; Receptor D5, 10 μM, mean of Inhibition 1-4): 11.43% | Inhibition 1 ([3]; Receptor 5-HT1D, 10 μM): -3.85% | Inhibition 2 ([3]; Receptor 5-HT1D, 10 μM): -18.84% | Inhibition 3 ([3]; Receptor 5-HT1D, 10 μM): 15.72% | Inhibition 4 ([3]; Receptor 5-HT1D, 10 μM): -8.43% | Mean % ([3]; Receptor 5-HT1D, 10 μM, mean of Inhibition 1-4): -3.85% | Mean % [4]: -8.2% | Inhibition 1 [4]: -12.5% | Inhibition 2 [4]: -5.38% | Inhibition 3 [4]: -3.9% | Inhibition 4 [4]: -11.03% | Mean % ([5]; H3, mean inhibition): 41.02% | Inhibition 1 ([5]; H3, replicate 1): 20.04% | Inhibition 2 ([5]; H3, replicate 2): 32.28% | Inhibition 3 ([5]; H3, replicate 3): 47.14% | Inhibition 4 ([5]; H3, replicate 4): 64.63% | Mean % ([5]; H4, mean inhibition): 39.36% | Inhibition 1 ([5]; H4, replicate 1): 11.58% | Inhibition 2 ([5]; H4, replicate 2): 47.34% | Inhibition 3 ([5]; H4, replicate 3): 40.86% | Inhibition 4 ([5]; H4, replicate 4): 57.67% | Inhibition 1 ([5]; Receptor Alpha1A, 10 μM): -21.6% | Inhibition 2 ([5]; Receptor Alpha1A, 10 μM): -1.59% | Inhibition 3 ([5]; Receptor Alpha1A, 10 μM): -0.84% | Inhibition 4 ([5]; Receptor Alpha1A, 10 μM): -9.82% | Mean % ([5]; Receptor Alpha1A, 10 μM, mean of Inhibition 1-4): -8.46% | Inhibition 1 ([5]; Receptor Alpha2A, 10 μM): 9.97% | Inhibition 2 ([5]; Receptor Alpha2A, 10 μM): 11.68% | Inhibition 3 ([5]; Receptor Alpha2A, 10 μM): -0.74% | Inhibition 4 ([5]; Receptor Alpha2A, 10 μM): -29.15% | Mean % ([5]; Receptor Alpha2A, 10 μM, mean of Inhibition 1-4): -2.06% | Inhibition 1 ([5]; Receptor Alpha2C, 10 μM): 20.53% | Inhibition 2 ([5]; Receptor Alpha2C, 10 μM): 3.75% | Inhibition 3 ([5]; Receptor Alpha2C, 10 μM): 5.64% | Inhibition 4 ([5]; Receptor Alpha2C, 10 μM): 4% | Mean % ([5]; Receptor Alpha2C, 10 μM, mean of Inhibition 1-4): 8.48% | Inhibition 1 [5, 6]: -12.35% | Inhibition 2 [5, 6]: -8.18% | Inhibition 3 [5, 6]: -22.2% | Inhibition 4 [5, 6]: 3.1% | Mean % ([5]; Receptor BZP Rat Brain Site, 10 μM, mean of Inhibition 1-4): -9.91% | Inhibition 1 ([5]; Receptor DOR, 10 μM): -22.02% | Inhibition 2 ([5]; Receptor DOR, 10 μM): -14.61% | Inhibition 3 ([5]; Receptor DOR, 10 μM): -13.89% | Inhibition 4 ([5]; Receptor DOR, 10 μM): -8.29% | Mean % ([5]; Receptor DOR, 10 μM, mean of Inhibition 1-4): -14.7% | Inhibition 1 ([5]; Receptor Sigma 1, 10 μM): 7.22% | Inhibition 2 ([5]; Receptor Sigma 1, 10 μM): -7.42% | Inhibition 3 ([5]; Receptor Sigma 1, 10 μM): 1.64% | Inhibition 4 ([5]; Receptor Sigma 1, 10 μM): 5.36% | Mean % ([5]; Receptor Sigma 1, 10 μM, mean of Inhibition 1-4): 1.7% | Inhibition 1 ([5]; Receptor Sigma 2, 10 μM): 14.42% | Inhibition 2 ([5]; Receptor Sigma 2, 10 μM): 15.13% | Inhibition 3 ([5]; Receptor Sigma 2, 10 μM): 40.23% | Inhibition 4 ([5]; Receptor Sigma 2, 10 μM): 21.82% | Mean % ([5]; Receptor Sigma 2, 10 μM, mean of Inhibition 1-4): 22.9%

CCC(=O)N1CCC(NC(=O)Nc2ccc(OC(F)(F)F)cc2)CC1 [UNC10302681A, TPPU]
Mean % ([1]; Alpha1B, mean inhibition): 7.22% | Inhibition 1 ([1]; Alpha1B, replicate 1): 0.2% | Inhibition 2 ([1]; Alpha1B, replicate 2): 16.24% | Inhibition 3 ([1]; Alpha1B, replicate 3): 7.3% | Inhibition 4 ([1]; Alpha1B, replicate 4): 5.13% | Mean % ([2]; D5, mean inhibition): -7.53% | Inhibition 1 ([2]; D5, replicate 1): -6.27% | Inhibition 2 ([2]; D5, replicate 2): -1.22% | Inhibition 3 ([2]; D5, replicate 3): -4.28% | Inhibition 4 ([2]; D5, replicate 4): -18.34% | Mean % ([3]; 5-HT1D, mean inhibition): 0.73% | Inhibition 1 ([3]; 5-HT1D, replicate 1): 17.8% | Inhibition 2 ([3]; 5-HT1D, replicate 2): -3.44% | Inhibition 3 ([3]; 5-HT1D, replicate 3): -7.6% | Inhibition 4 ([3]; 5-HT1D, replicate 4): -3.85% | Mean % [4]: -13.3% | Inhibition 1 [4]: -14.72% | Inhibition 2 [4]: -20.61% | Inhibition 3 [4]: -11.27% | Inhibition 4 [4]: -6.61% | Mean % ([5]; Alpha1A, mean inhibition): -2.01% | Inhibition 1 ([5]; Alpha1A, replicate 1): 4.58% | Inhibition 2 ([5]; Alpha1A, replicate 2): -5.33% | Inhibition 3 ([5]; Alpha1A, replicate 3): -5.52% | Inhibition 4 ([5]; Alpha1A, replicate 4): -1.78% | Mean % ([5]; Alpha2A, mean inhibition): -5.2% | Inhibition 1 ([5]; Alpha2A, replicate 1): -1.74% | Inhibition 2 ([5]; Alpha2A, replicate 2): -8.16% | Inhibition 3 ([5]; Alpha2A, replicate 3): -13.09% | Inhibition 4 ([5]; Alpha2A, replicate 4): 2.19% | Mean % ([5]; Alpha2C, mean inhibition): -0.34% | Inhibition 1 ([5]; Alpha2C, replicate 1): 3.18% | Inhibition 2 ([5]; Alpha2C, replicate 2): -3.57% | Inhibition 3 ([5]; Alpha2C, replicate 3): 7.34% | Inhibition 4 ([5]; Alpha2C, replicate 4): -8.31% | Mean % ([5]; BZP Rat Brain Site, mean inhibition): 9.51% | Inhibition 1 ([5]; BZP Rat Brain Site, replicate 1): 23.2% | Inhibition 2 ([5]; BZP Rat Brain Site, replicate 2): 7.09% | Inhibition 3 ([5]; BZP Rat Brain Site, replicate 3): 1.4% | Inhibition 4 ([5]; BZP Rat Brain Site, replicate 4): 6.33% | Mean % ([5]; DOR, mean inhibition): -1.52% | Inhibition 1 ([5]; DOR, replicate 1): 6.89% | Inhibition 2 ([5]; DOR, replicate 2): -4.86% | Inhibition 3 ([5]; DOR, replicate 3): -4.68% | Inhibition 4 ([5]; DOR, replicate 4): -3.41% | Mean % ([5]; GABAA, mean inhibition): -2.31% and -7.5% | Inhibition 1 ([5]; GABAA, replicate 1): 16.54% and 5.88% | Inhibition 2 ([5]; GABAA, replicate 2): -7.12% and -3.31% | Inhibition 3 ([5]; GABAA, replicate 3): -2.68% and -32.5% | Inhibition 4 ([5]; GABAA, replicate 4): -15.99% and -0.07% | Mean % ([5]; H3, mean inhibition): 21.21% | Inhibition 1 ([5]; H3, replicate 1): 28.2% | Inhibition 2 ([5]; H3, replicate 2): 25.87% | Inhibition 3 ([5]; H3, replicate 3): 12.17% | Inhibition 4 ([5]; H3, replicate 4): 18.58% | Mean % ([5]; H4, mean inhibition): -7.02% | Inhibition 1 ([5]; H4, replicate 1): -3.06% | Inhibition 2 ([5]; H4, replicate 2): -20.34% | Inhibition 3 ([5]; H4, replicate 3): -7.38% | Inhibition 4 ([5]; H4, replicate 4): 2.7% | Mean % ([5]; Sigma 1, mean inhibition): 19.57% | Mean % ([5]; Sigma 2, mean inhibition): 21.21%
